Drawing on patent US20180250403A1, “CONJUGATES” (AGENCY FOR SCIENCE, TECHNOLOGY AND RESEARCH, priority 2015, published 2018), this text covers cytotoxicity in dark for one compound.

This data set concerns B16F10 cells. Kind of data set: Cell proliferation / cytotoxicity (Incucyte) with and without light irradiation. Type of data set: cell-based, murine. The conditions noted are these: B16F10, 10 uM. As for the experimental part:
Murine melanoma B16F10 cells were seeded at 3000-4000 cells per well in 96 well black view plate Perkin Elmer plates in DMEM media without phenol, as phenol red may interfere in the absorption of light. After overnight incubation, media was aspirated from the wells and varying concentrations of photosensitizers were added to the cells. Cells were incubated for 4 hours in dark at 37° C., after 4 hours cells were washed twice with 1×PBS and 300 μL of media was added to the wells before placing the plates in Incucyte ZOOM Live cell imaging machine to capture the images after every hour. Percentage confluence was measured over a time period. Similar approach was taken for keratinocyte cell lines NTERT-1 except the starting confluence was 75-85%. This is to mimic the physiological situation in the body where keratinocytes are present in much larger numbers than melanocytes. […]
Mouse melanoma cells B16-F10, human skin keratinocytes N-TERT-1 and primary human melanocytes MeL at cell densities of 4000 cells/well, 6000 cells/well and 3500 cells/well respectively were seeded to achieve similar starting confluence in 96-black Perkin-Elmer well plate in DMEM medium without phenol red (for B16F10 and MeL) and KSFM media (for N/TERT-1 cells) and kept for overnight at 37° C. […] Percentage confluence was measured over a time period. […]

For `CN(C)c1ccc2nc3ccc(=[N+](C)C)cc-3sc2c1` [MB, methylene blue], the cytotoxicity in dark entry was “no cytotoxicity”.
